# In patent US20250129021A1, “SMALL MOLECULE PROTEIN SYNTHESIS MODULATORS” (Interdict Bio, Inc., priority 2023, published 2025):
# Tests used:
# Assay type in all cases: biochemical
# CCND1 = experiment: In vitro transcription-translation (IVTT) assay, CCND1 reporter; conditions: IVTT assay, HeLa S3 lysate, sfGFP/mCherry ratio
# In short: (§1)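 Reporter: mCherry, P2A, then 3×FLAG-target peptide-sfGFP fusion, IRES-initiated; HeLa S3 lysate IVTT; cpd dilutions 30 μM−0.1 μM half-log in 100% DMSO (dilution-plate conc); DNA added last; 2 h, 30° C; PBS quench.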
# MYC = experiment: In vitro transcription-translation (IVTT) assay, MYC reporter; conditions: IVTT assay, HeLa S3 lysate, MYC reporter, normalized sfGFP/mCherry ratio; half-log dilutions 30 μM-0.1 μM, 2 hrs at 30° C.
# In short: as §1
# NFKB1 = experiment: In vitro transcription-translation (IVTT) assay, NFKB1 reporter; conditions: HeLa S3 lysate, sfGFP/mCherry ratio
# Experimental: In vitro transcription-translation assay setup: Each assay includes a master mix containing lysate and shared components, a 96-well plate containing compound titrations for testing, a 96-well DNA plate with reporter constructs to be tested, 96-well skirted PCR plates, and 96-well flat-bottom, black, fluorescent assay plates. Reaction materials setup: (A) Master mix—15 mL conical tube (3 mL of HeLa S3 Lysate described above; 0.6 mL of ThermoFisher Accessory Proteins (#88882); 1.2 ml of ThermoFisher Reaction Mix (#88882); 0.54 mL of nuclease-free Water); (B) 96-Well Master Mix+Compound Plate (Half-log dilutions (30 μM−0.1 μM) of 4 compounds of interest are prepared in 100% DMSO); 96-Well DNA Plate (Five DNA constructs are plated into single columns within the plate. Row 1 of the column contains nuclease free H2O, all other wells contain 110 ng/μL plasmid DNA). Reactions are started by mixing 155 μL of master mix and 3.5 μL of compound serial dilutions, then 9.1 μL of master mix+compound mixture is aliquoted across 5 96-well plates. Reactions begin with final addition of 2 μL of DNA for a 11.1 μL reaction volume in each well. The entire plate is sealed, and incubated for 2 hrs at 30° C. After 2 hrs, quench the assay using 45 μL of PBS, and transfer 50 μL to a flat-bottom black microplate Quantify the sfGFP and mCherry signals from each well on each plate, taking 3 reads of each plate, and perform data analysis below.
# In vitro transcription-translation assay data analysis: Each plate is read three times in channels for both sfGFP and mCherry signals. The average signal across these 3 reads is then calculated for further analysis. Control wells containing no DNA reporter are subtracted from reporter wells in the same column to remove auto-fluorescence of the lysate. Then, the ratio of sfGFP/mCherry is calculated per well, and these ratios are averaged across the triplicate experiments on the same plate. Finally, the ratio of each titration concentration is normalized to the no drug control to create the normalized stalling metric. The error on this measurement is determined by propagating error through the averaging and normalization steps. Values are plotted and fit for IC50 determination for each test sequence and titration of compound.
Molecule,IC50 (CCND1) [µM],IC50 (NFKB1) [µM],IC50 (MYC) [µM]
"O=C(NCc1cccc(F)c1)O[C@@H]1[C@@H](O)CN[C@@H]1Cc1ccc(-c2cnc(C(F)F)s2)cc1 [V192310, (2R,3S,4S)-2-({4-[2-(difluoromethyl)-1,3-thiazol-5-yl]phenyl}methyl)-4-hydroxypyrrolidin-3-yl N-[(3-fluorophenyl)methyl]carbamate]",10 to 20,< 10,< 10
"O=C(NCc1cccc(F)c1)O[C@@H]1[C@@H](O)CN[C@@H]1Cc1ccc(-c2cnc(N3CC(F)(F)C3)s2)cc1 [V192410, (2R,3S,4S)-2-({4-[2-(3,3-difluoroazetidin-1-yl)-1,3-thiazol-5-yl]phenyl}methyl)-4-hydroxypyrrolidin-3-yl N-[(3-fluorophenyl)methyl]carbamate]",< 10,< 10,< 10
"O=C(NCCC1CCNCC1)O[C@@H]1[C@@H](O)CN[C@@H]1Cc1ccc(-c2ccc(Cl)s2)cc1 [V192261, (2R,3S,4S)-2-{[4-(5-chlorothiophen-2-yl)phenyl]methyl}-4-hydroxypyrrolidin-3-yl N-[2-(piperidin-4-yl)ethyl]carbamate]",< 10,< 10,< 10
"O=C(NCCc1cc(F)c(O)c(F)c1)O[C@@H]1[C@@H](O)CN[C@@H]1Cc1ccc(-c2cnco2)cc1 [V192432, (2R,3S,4S)-4-hydroxy-2-{[4-(1,3-oxazol-5-yl)phenyl]methyl}pyrrolidin-3-yl N-[2-(3,5-difluoro-4-hydroxyphenyl)ethyl]carbamate]",< 10,< 10,< 10
"O=C(NCCSC(F)(F)F)O[C@@H]1[C@@H](O)CN[C@@H]1Cc1ccc(-c2cnco2)cc1 [V192442, (2R,3S,4S)-4-hydroxy-2-{[4-(1,3-oxazol-5-yl)phenyl]methyl}pyrrolidin-3-yl N-{2-[(trifluoromethyl)sulfanyl]ethyl}carbamate]",< 10,< 10,< 10
"O=C(NCc1cccc(F)c1)O[C@@H]1[C@@H](O)CN[C@@H]1Cc1ccc(-c2cnco2)nc1 [V192862, (2R,3S,4S)-4-hydroxy-2-{[6-(1,3-oxazol-5-yl)pyridin-3-yl]methyl}pyrrolidin-3-yl N-[(3-fluorophenyl)methyl]carbamate]",< 10,< 10,< 10
"(3S,4S,5R)-4-({[(3-fluorophenyl)methyl]carbamoyl}oxy)-5-{[4-(1,3-oxazol-5-yl)phenyl]methyl}pyrrolidin-3-yl acetate [V192392]",< 10,< 10,< 10
"CNC1(c2ccc(CNC(=O)O[C@@H]3[C@@H](O)CN[C@@H]3Cc3ccc(-c4cnco4)cc3)cc2)CC1 [V192288, (2R,3S,4S)-4-hydroxy-2-{[4-(1,3-oxazol-5-yl)phenyl]methyl}pyrrolidin-3-yl N-({4-[1-(methylamino)cyclopropyl]phenyl}methyl)carbamate]",< 10,< 10,< 10
"O=C(NCc1cccc(F)c1)O[C@@H]1[C@@H](O)CN[C@@H]1Cc1ccc(Oc2cccnc2)cc1 [V192398, (2R,3S,4S)-4-hydroxy-2-{[4-(pyridin-3-yloxy)phenyl]methyl}pyrrolidin-3-yl N-[(3-fluorophenyl)methyl]carbamate]",< 10,< 10,< 10
"(2R,3S,4S)-2-(2,1,3-benzoxadiazol-5-ylmethyl)-4-hydroxypyrrolidin-3-ylN-[(3-fluorophenyl)methyl]carbamate [V192383]",< 10,< 10,< 10
"O=C(NCC[C@H]1CCNC[C@H]1F)O[C@@H]1[C@@H](O)CN[C@@H]1Cc1ccc(-c2cnco2)cc1 [V192897, (2R,3S,4S)-4-hydroxy-2-{[4-(1,3-oxazol-5-yl)phenyl]methyl}pyrrolidin-3-yl N-{2-[(3S,4R)-3-fluoropiperidin-4-yl]ethyl}carbamate]",10 to 20,< 10,< 10
"O=C(NCc1cccc(F)c1)O[C@@H]1[C@@H](O)CN[C@@H]1Cc1ccc(C(F)(F)F)cc1 [V192896, (2R,3S,4S)-4-hydroxy-2-{[4-(trifluoromethyl)phenyl]methyl}pyrrolidin-3-yl N-[(3-fluorophenyl)methyl]carbamate]",< 10,< 10,< 10
"O=C(NCC[C@@H]1CCCN1)O[C@@H]1[C@@H](O)CN[C@@H]1Cc1ccc(-c2ccns2)cc1 [V192331, (2R,3S,4S)-4-hydroxy-2-{[4-(1,2-thiazol-5-yl)phenyl]methyl}pyrrolidin-3-yl N-{2-[(2S)-pyrrolidin-2-yl]ethyl}carbamate]",< 10,< 10,< 10
"O=C(NCc1cccc(F)c1)O[C@@H]1[C@@H](O)CN[C@@H]1Cc1ccc(-c2cn3ccnc3s2)cc1 [V192127, (2R,3S,4S)-4-hydroxy-2-[(4-{imidazo[2,1-b][1,3]thiazol-2-yl}phenyl)methyl]pyrrolidin-3-yl N-[(3-fluorophenyl)methyl]carbamate]",< 10,< 10,< 10

# Now from value to molecule, other results behind:
IC50 (CCND1) [µM],IC50 (NFKB1) [µM],Molecule,IC50 (MYC) [µM]
< 10,< 10,"O=C(NCCC(O)C(F)(F)F)O[C@@H]1[C@@H](O)CN[C@@H]1Cc1ccc(-c2cnco2)cc1 (stereo partly drawn) [V192868, (2R,3S,4S)-4-hydroxy-2-{[4-(1,3-oxazol-5-yl)phenyl]methyl}pyrrolidin-3-yl N-(4,4,4-trifluoro-3-hydroxybutyl)carbamate]",< 10
< 10,< 10,"O=C(NCCC12CC(CN1)C2)O[C@@H]1[C@@H](O)CN[C@@H]1Cc1ccc(-c2cnco2)cc1 [V192847, (2R,3S,4S)-4-hydroxy-2-{[4-(1,3-oxazol-5-yl)phenyl]methyl}pyrrolidin-3-yl N-(2-{2-azabicyclo[2.1.1]hexan-1-yl}ethyl)carbamate]",< 10
< 10,< 10,"O=C(NCc1cccc(F)c1)O[C@@H]1[C@@H](O)CN[C@@H]1Cc1ccc(-c2ccns2)cc1 [V192324, (2R,3S,4S)-4-hydroxy-2-{[4-(1,2-thiazol-5-yl)phenyl]methyl}pyrrolidin-3-yl N-[(3-fluorophenyl)methyl]carbamate]",< 10
< 10,< 10,"CNC1(c2cccc(CNC(=O)O[C@@H]3[C@@H](O)CN[C@@H]3Cc3ccc(-c4cnco4)cc3)c2)CC1 [V192289, (2R,3S,4S)-4-hydroxy-2-{[4-(1,3-oxazol-5-yl)phenyl]methyl}pyrrolidin-3-yl N-({3-[1-(methylamino)cyclopropyl]phenyl}methyl)carbamate]",< 10
< 10,< 10,"O=C(NCC[C@@H]1CCCN1)O[C@@H]1[C@@H](O)CN[C@@H]1Cc1ccc([N+](=O)[O-])cc1 [V192359, (2R,3S,4S)-4-hydroxy-2-[(4-nitrophenyl)methyl]pyrrolidin-3-yl N-{2-[(2S)-pyrrolidin-2-yl]ethyl}carbamate]",< 10
< 10,< 10,"O=C(NCc1cccc(F)c1)O[C@@H]1[C@@H](O)CN[C@@H]1Cc1ccc(OCF)cc1 [V190507, (2R,3S,4S)-2-(4-(fluoromethoxy)benzyl)-4-hydroxypyrrolidin-3-yl (3-fluorobenzyl)carbamate]",< 10
< 10,< 10,"O=C(NCc1cccc(F)c1)O[C@@H]1[C@@H](O)CN[C@@H]1Cc1ccc(C(F)F)cc1 [V192274, (2R,3S,4S)-2-{[4-(difluoromethyl)phenyl]methyl}-4-hydroxypyrrolidin-3-yl N-[(3-fluorophenyl)methyl]carbamate]",< 10
< 10,< 10,"O=C(NCc1cc(F)c(O)c(F)c1)O[C@@H]1[C@@H](O)CN[C@@H]1Cc1ccc(-c2cnco2)cc1 [V192433, (2R,3S,4S)-4-hydroxy-2-{[4-(1,3-oxazol-5-yl)phenyl]methyl}pyrrolidin-3-yl N-[(3,5-difluoro-4-hydroxyphenyl)methyl]carbamate]",< 10
< 10,< 10,"O=C(NCC[C@@H]1C[C@H](C(F)(F)F)CN1)O[C@@H]1[C@@H](O)CN[C@@H]1Cc1ccc(-c2cnco2)cc1 [V192912, (2R,3S,4S)-4-hydroxy-2-{[4-(1,3-oxazol-5-yl)phenyl]methyl}pyrrolidin-3-yl N-{2-[(2S,4S)-4-(trifluoromethyl)pyrrolidin-2-yl]ethyl}carbamate]",< 10
